From patent US20240287138A1, “CYCLIC PEPTIDES FOR INHIBITING TNF RECEPTOR 1 ACTIVITY” (Merck Sharp & Dohme LLC, priority 2023, published 2024)
Numbered stars: 1 amine (or outer) side, 2 acyl side, 3 side chain; on linkers, the order of the positions; unused ones are H or OH. Bridge positions count the residues as written; N and C are the ends. Square brackets hold non-standard residues; d marks the D form. Peptide text beside a SMILES is read from it. * marks the point of attachment. Trp(βS-Me,7-OMe) = COc1cccc2c([C@H](C)[C@H](N)C(=O)O)c[nH]c12; Phe(2-F,4-COOH) = N[C@@H](Cc1ccc(C(=O)O)cc1F)C(=O)O; Trp(7-CN) = N#Cc1cccc2c(C[C@H](N)C(=O)O)c[nH]c12; Trp(7-Cl) = N[C@@H](Cc1c[nH]c2c(Cl)cccc12)C(=O)O; Biotin = O=C1N[C@H]2[C@H](CS[C@H]2CCCCC(=O)*)N1; Phe(3-COOH) = N[C@@H](Cc1cccc(C(=O)O)c1)C(=O)O; Phe(4-CONH2) = NC(=O)c1ccc(C[C@H](N)C(=O)O)cc1; Phe(4-COOH) = N[C@@H](Cc1ccc(C(=O)O)cc1)C(=O)O; Trp(7-aza) = N[C@@H](Cc1c[nH]c2ncccc12)C(=O)O; Tyr(3-OMe) = COc1cc(C[C@H](N)C(=O)O)ccc1O; Pip(5R-OH) = O=C(O)[C@@H]1CC[C@@H](O)CN1; X1 = O=C([C@@H]1CC[C@H](N[*:1])C1)[*:2]; X42 = C[C@@H](CO)N(CC(=O)[*:2])[*:1]; Pip(4-aza) = O=C(O)[C@@H]1CNCCN1; 4Pal = N[C@@H](Cc1ccncc1)C(=O)O; NMeE = CN[C@@H](CCC(=O)O)C(=O)O; αMeS = C[C@](N)(CO)C(=O)O; Nle = CCCC[C@H](N)C(=O)O; AEA = NCCOCC(=O)O; Sar = CNCC(=O)O

Each compound was assayed against T1, TNFα-induced NF-κB signal transduction pathway (TNFR1 signaling) in THP-1 cells (Homo sapiens, UniProt P19438) (assay: THP-1 Lucia NF-κB reporter cell assay, inhibition of TNFα-induced NF-κB signaling). Settings: THP-1 NF-κB Lucia reporter cells, 10 ng/mL TNFα, 16-18 h, secreted luciferase; read-out: THP-1 IC50.
T1 sequence (P19438 30-455): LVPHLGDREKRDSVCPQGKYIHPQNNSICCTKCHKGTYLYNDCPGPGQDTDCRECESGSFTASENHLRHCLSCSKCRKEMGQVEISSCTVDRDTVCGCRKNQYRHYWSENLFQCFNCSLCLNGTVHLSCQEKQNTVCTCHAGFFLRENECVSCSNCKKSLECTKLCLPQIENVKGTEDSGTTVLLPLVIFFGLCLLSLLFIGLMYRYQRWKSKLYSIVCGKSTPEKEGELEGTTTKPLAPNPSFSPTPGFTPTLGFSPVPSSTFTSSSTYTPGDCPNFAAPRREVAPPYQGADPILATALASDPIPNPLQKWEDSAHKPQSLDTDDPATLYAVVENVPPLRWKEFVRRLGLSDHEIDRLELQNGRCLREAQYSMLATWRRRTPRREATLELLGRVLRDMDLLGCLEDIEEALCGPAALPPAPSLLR
Format: cell-based
Experimental: C. Procedure for THP-1 Lucia NF-κB cells
The inhibition of TNFα-induced NF-κB signal transduction pathways was evaluated in THP-1 cells. THP-1 cells harboring NF-κB-inducible Lucia™ reporter gene (InvivoGen, cat. #thp1-nfkb) designed for monitoring NF-κB signal transduction pathway was employed to assess the inhibitory effect macrocyclic peptides on TNFR1 signaling. The cells were cultured in media containing RPMI 1640, 2 mM L-glutamine, 25 mM HEPES, 10% heat-inactivated fetal bovine serum with appropriate selection antibiotics. Assays were performed in media that was devoid of selection antibiotics. For profiling, 125 nL of peptides in DMSO (10 mM) were dispensed into Falcon® 384-well Optilux white/clear flat bottom TC-treated microtest microplate (Corning, cat. #353963) using Echo® 555. […] A suspension of 1 million cells/mL was dispensed at 20 μL/well in a 384-well plate to a density of 20,000 cells/well and pre-incubated with peptides at 37° C. for 1 h. Subsequently, 5 μL of TNF containing media (recombinant human TNFα; R&D Systems USA, cat. #210-TA-005/CF) or TNF-free media (for controls) was added to the wells. The final concentration of TNFα in the assay in 10 ng/mL. After o.n. incubation at 37° C. (16-18 h), 5 μL of supernatant was aspirated and transferred to a 384-well microplate (PerkinElmer, cat. #6007680) for measurement of secreted luciferase activity with 25 μL of QUANTI-Luc™ luminescence assay reagent (InvivoGen, cat. #rep-qlc1) in each well. The luminescence was measured in EnVision® Multimode Plate Reader (PerkinElmer). Dose response curves were analyzed using a 4-parameter logistic model to calculate IC50 values, reported in Table 2, using TIBCO® Spotfire® software employing appropriate Minimum and Maximum controls.

Point of comparison: `CCCC[C@@H]1NC(=O)[C@@H]2CC[C@@H](C2)NC(=O)[C@H]([C@@H](C)c2c[nH]c3c(OC)cccc23)NC(=O)CN(C)C(=O)[C@H](Cc2ccc(O)cc2)NC(=O)[C@H](Cc2ccc(C(=O)O)cc2F)NC(=O)[C@](C)(CO)NC(=O)[C@H](Cc2c[nH]c3c(Cl)cccc23)NC(=O)[C@H](Cc2ccncc2)NC(=O)[C@H](CC(N)=O)NC(=O)[C@H](CCC(=O)O)N(C)C(=O)[C@H](Cc2c[nH]c3ccccc23)NC(=O)[C@@H]2CNCCN2C(=O)[C@H](Cc2ccncc2)NC1=O` [SEQ ID NO. 7] (cyclo([4Pal][Trp(7-Cl)][αMeS][Phe(2-F,4-COOH)]Y[Sar][Trp(βS-Me,7-OMe)][X1][Nle][4Pal][Pip(4-aza)]W[NMeE]N)), IC50 1.6 nM. Against it:
- CN1CC(=O)N[C@@H](CC(N)=O)C(=O)N[C@@H](Cc2ccc(O)cc2)C(=O)N[C@@H](Cc2c[nH]c3ccccc23)C(=O)N[C@@H](CO)C(=O)N[C@@H](Cc2ccc(O)cc2)C(=O)N[C@@H](Cc2ccc(O)cc2)C(=O)N(C)CC(=O)N[C@@H](Cc2c[nH]c3ccccc23)C(=O)N[C@H](C(=O)NCC(=O)NCCOCC(=O)N[C@@H](CCCCNC(=O)CCCC[C@@H]2SC[C@@H]3NC(=O)N[C@@H]32)C(N)=O)CSCC(=O)N[C@@H](Cc2ccccc2)C(=O)N[C@@H](Cc2ccc(O)cc2)C(=O)N[C@@H](CO)C(=O)N[C@@H](Cc2c[nH]c3ccccc23)C1=O [SEQ ID NO. 1] ({CH2CO}-FYSW[Sar]NYWSYY[Sar]WCG[AEA]K(Biotin)-NH2; thioether N-14) — 140-fold higher, 227 nM
- CCCC[C@@H]1NC(=O)[C@@H]2CC[C@@H](C2)NC(=O)[C@H]([C@@H](C)c2c[nH]c3c(OC)cccc23)NC(=O)CN(C)C(=O)[C@H](Cc2ccc(C(N)=O)cc2)NC(=O)[C@H](Cc2ccc(C(N)=O)cc2)NC(=O)[C@](C)(CO)NC(=O)[C@H](Cc2c[nH]c3c(C#N)cccc23)NC(=O)[C@H](Cc2ccc(C(=O)O)cc2)NC(=O)[C@H](CC(N)=O)NC(=O)CN([C@@H](C)CO)C(=O)[C@H](Cc2c[nH]c3ncccc23)NC(=O)[C@@H]2CC[C@@H](O)CN2C(=O)[C@H](Cc2ccncc2)NC1=O [SEQ ID NO. 23] (cyclo([4Pal][Pip(5R-OH)][Trp(7-aza)][X42]N[Phe(4-COOH)][Trp(7-CN)][αMeS][Phe(4-CONH2)][Phe(4-CONH2)][Sar][Trp(βS-Me,7-OMe)][X1][Nle])) — 2-fold lower, 0.8 nM
- CCCC[C@@H]1NC(=O)[C@@H]2CC[C@@H](C2)NC(=O)[C@H]([C@@H](C)c2c[nH]c3c(OC)cccc23)NC(=O)CN(C)C(=O)[C@H](Cc2ccc(O)c(OC)c2)NC(=O)[C@H](Cc2ccc(C(=O)O)cc2)NC(=O)[C@](C)(CO)NC(=O)[C@H](Cc2c[nH]c3c(Cl)cccc23)NC(=O)[C@H](Cc2ccncc2)NC(=O)[C@H](CC(N)=O)NC(=O)[C@H](CCC(=O)O)N(C)C(=O)[C@H](Cc2c[nH]c3ccccc23)NC(=O)[C@@H]2CNCCN2C(=O)[C@H](Cc2ccncc2)NC1=O [SEQ ID NO. 24] (cyclo([4Pal][Trp(7-Cl)][αMeS][Phe(4-COOH)][Tyr(3-OMe)][Sar][Trp(βS-Me,7-OMe)][X1][Nle][4Pal][Pip(4-aza)]W[NMeE]N)) — 2.3-fold lower, 0.7 nM
- CCCC[C@@H]1NC(=O)[C@@H]2CC[C@@H](C2)NC(=O)[C@H]([C@@H](C)c2c[nH]c3c(OC)cccc23)NC(=O)CN(C)C(=O)[C@H](Cc2ccc(O)cc2)NC(=O)[C@H](Cc2cccc(C(=O)O)c2)NC(=O)[C@](C)(CO)NC(=O)[C@H](Cc2c[nH]c3c(Cl)cccc23)NC(=O)[C@H](Cc2ccncc2)NC(=O)[C@H](CC(N)=O)NC(=O)[C@H](CCC(=O)O)N(C)C(=O)[C@H](Cc2c[nH]c3ccccc23)NC(=O)[C@@H]2CNCCN2C(=O)[C@H](Cc2ccncc2)NC1=O [SEQ ID NO. 28] (cyclo([4Pal][Trp(7-Cl)][αMeS][Phe(3-COOH)]Y[Sar][Trp(βS-Me,7-OMe)][X1][Nle][4Pal][Pip(4-aza)]W[NMeE]N)) — the same, 1.6 nM
